# Measured values taken from US12329773B2, “Oxygen reactive polymers for treatment of traumatic brain injury” (University of Washington, priority 2015, dated 2025).
# Assay: MR imaging of uptake, retention and clearance in CCI mouse model of TBI
# Format: in vivo, mice
# Procedure: 8-10 Week old C57/B6 mice were induced with 4% isoflurane gas via inhalation and maintained at 1.5-2%, then placed upon a warm heating pad set to 100° F. to maintain body temperature. Prior to surgery, hair on the top of the skull was trimmed and epilated via shears and Nair (Church and Dwight Co., Inc., Princeton, NJ). Lidocaine (0.05 mL at a 5 mg/mL) and bupivacaine (0.05 mL at 0.3 mg/mL) were injected subcutaneously under the scalp. After 5 min to allow anesthetic to absorb, a midline incision was made in the skin from lambda to bregma. Fascia and skin were retracted and a small hole drilled using a high speed surgical drill over the left frontoparietal cortex (3 mm anterior and 2 mm left from lambda), and a 3 mm circular cranial window created using rongeurs. A pneumatically-operated controlled cortical impactor (CCI) with a 3 mm convex tip was used to impact the brain normal to the dura surface at a depth of 1 mm at 6 m/s and remained in the brain for 150 ms. Incisions were closed using skin glue and mice given an intraperitoneal injection of buprenorphine (0.1 mg/kg). Mice were monitored under a heat lamp until awake.
# Three consecutive T1w images were acquired with RARE (rapid acquisition with refocused echoes) pulse sequence: TR/TE=667.5/4.5 ms, matrix=256×128, field of view (FOV)=25.6×25.6 mm, number of averages (NA)=1, 15 slices and 1 mm slice thickness. […] A series of T1w images were acquired using a fast low angle shot (FLASH) pulse sequence. There were three—four consecutive T1w sequences acquired both pre and post injection—one set of three pre injection acquisitions and then three sets of four post injection acquisitions with an additional set post the following day (4 post imaging total). These images utilized a 3 dimensional (D) FLASH sequence: TR/TE=20/3.87 ms, flip angle=20°, matrix=160×160×30, FOV=25.6×25.6 mm, NA=2, 30 slices and 3D slab of 15 mm. For the first group of mice, T2w images (TR/TE=5500/50 ms) were selected from RARE pulse sequence with (TR=214.3, 500, 1000, 1500, 3000 and 5500 ms and TE=10, 30, 50, 70 and 90 ms, matrix=256×128, FOV=25.6×25.6 mm, NA=1, 2 slices and 1 mm slice thickness. For the second group of mice, T2w images (TR/TE=4000/37.7 ms) were selected from multi-slice and multi-echo imaging conducted with TR/TE=4000/6.3−75.4 ms (12 echoes with 6.3 ms spacing), matrix=256×128, NA=1, 15 slices and 1 mm slice thickness.
Compound,accumulation / contrast enhancement in damaged brain (T1 contrast) (injected 3 hrs post-CCI),"blood half-life (injected post-CCI, intravascular MR signal) [h]","accumulation / contrast enhancement in damaged brain (T1 contrast) (mouse, in vivo)","accumulation in damaged brain (T1 contrast) (mouse, in vivo)","blood (circulation) half-life (mouse, in vivo)","half-life in damaged brain (resident half-life) (mouse, in vivo)","half-life in the ventricles (mouse, in vivo) [h]","retention in damaged brain (mouse, in vivo)","retention within damaged brain (mouse, in vivo)"
"O=C([O-])CN(CCN(CC(=O)[O-])CC(=O)O)CCN(CC(=O)[O-])CC(=O)O.[Gd+3] [Gd-DTPA, reference compound]",displayed contrast enhancement in damaged brain,0.6,–,–,–,–,–,–,–
poly(MEMcoO950coMNHS) [ORP],–,–,showed accumulation in damaged brain after 18 hrs,accumulates in the damaged region of brain,about 1.1 hrs,greater than 14 hrs,~40,at least 18 hrs,at least 24 hrs
